Series [1] relates to tumor tissues of K-Ras^V12G×Apc^1638N transgenic mouse. The series can be described thus: Fluorescence microscopy of digestive tumor tissue of a treated transgenic mouse. Conditions: oral, with 5FU+CPT11 for three days, sacrificed two hours after the last treatment. The series is classed as in vivo. The protocol:
Tumor samples prepared from animals treated with Dbait molecules tagged by fluorescein (Dbait32H-FITC) (SEQ ID NO: 1) and 5FU+CPT11 were analysed using immunofluorescence staining methods. γ-H2AX labeled foci were costained with fluorescent Dbait molecules, in reminiscence of the in vitro finding (cf. example 3.3 and 4). […] Then the tumor tissues were sampled and frozen at −80° C. For the analysis, 5 μm histological samples were made from the frozen tumor tissues by cryostat. DNA repair foci were detected by immunofluorescence with polyclonal rabbit anti-γ-H2AX antibody (Trevigen) diluted 1/500 in PBS, then with goat anti-rabbit antibody tagged by cyanine 3 (Jackson) diluted 1/200 in PBS. The samples were also counterstained by DAPI Samples were visualized by epifluorescence microscopy. […] Similar pattern was found for γ-H2AX sites (FIG. 5.3, panel B, right). The co-localized Dbait32H-FITC (SEQ ID NO: 1) and γ-H2AX signals were almost observed.

Series [2] concerns γ-H2AX foci in Hela cells. The series can be described thus: Immunodetection of DSB sites (γ-H2AX foci) in Hela cells after irradiation. The settings on record: 2 μg Dbait, two hours after 2 Gy irradiation. In kind it is cell-based, human. The protocol: Transfection and irradiation protocoles were similar to those described above. For immunodetection, the cells were grown on surface coverslip in 5 cm diameter Petri dishes, transfected with 2 μg Dbait32H-FITC (SEQ ID NO: 1) molecules labeled with FITC with Superfect (Qiagene) according to the manufacturer's instruction. Four hours after the beginning of the transfection, cells were irradiated (2 Gy), then rest for 2 hours in the medium at 37° C. After 3 washing cycles, the cells were fixated with 2% PFA for 10 minutes. After one additional washings, the presence of γ-H2AX was detected with rabbit anti-γ-H2AX antibody (4411-PC, Trevigen) diluted 1/100 in 1×PBS, 1% BSA. Cells were washed three times with 1×PBS, 0.5% TritonX-100, then incubated for 1 hour at room temperature with rhodamine-conjugated goat anti-rabbit antibodies diluted 1/100 in 1×PBS, 1% BSA. Cells were visualized by epifluorescence microscopy.
Left panel: fluorescence of Dbait32H-FITC (SEQ ID NO: 1) (bright dots and patches) and DBS foci detected by immunofluorescence of γ-H2AX antibody in nuclei; Right panel: the same image of nuclei with DSB foci detected by immunofluorescence of γ-H2AX antibody and DAPI counterstaining. The arrows at the lower left corner show the absence of Dbait32H-FITC (SEQ ID NO: 1) and γ-H2AX signal in nucleus. […]

Series [3] deals with GMA32 cells. The series can be described thus: Clonogenicity (clonal survival) assay in GMA32 cells with irradiation or mitotic inhibitors. The series is classed as cell-based, Chinese hamster. The protocol: (§1) The GMA32 Chinese hamster fibroblast cells permissive of DNA breaks were maintained in MEM medium (Gibco) supplemented with 1 mM sodium pyruvate, 2 mM glutamine, 1×MEM non essential amino acids, 1× penicillin/streptomycin and 10% horse serum. Typically, 2×10^5 to 4×10^5 cells were seeded in medium without antibiotics, in 5 cm diameter Petri dishes 24 hours before the transfection of different Dbait molecules (4.5 μg) with lipofectamine 2000 (LifeTechnologies) as transfection agent (in a 1:3 ratio), according to the manufacturer's instructions. At the end of the transfection the cells were either irradiated (4 Gy) or treated with mitotic inhibitors: nocodazole (200 nM), navelbine (100 nM) or taxol (200 nM).
(§2) About 16 hour later the drug was removed and the cells were allowed to recover. Cell irradiation was performed with γ-rays from a ^137Cs source. After a 24 hours recovery, the cells were collected and used either for FACS, western blot analyses or to determine the clonogenicity (survival) and the effect of each treatment.
The effect of radiosensitization and chemosensitization of Dbait molecules in GMA32 cells was evaluated by clonogenicity (clonal survival) assay. For the clonogenicity assay, serial dilutions were made after counting the cells to seed 5 cm Petri dishes with different amounts of cells. The number of cells range from 100-200 (control cells) to 3000 (transfected or/and treated cells). Ten days after, the cells (forming clone) were fixed with 4% paraformaldehyde (20 minutes), then colored with methylene blue (15 minutes), and the number of clone in each plate (in triplicates) was scored.
These drugs are known as potent inhibitors of either polymerization or depolymerization of microtubules. Dbait32 (SEQ ID NO: 1) and Dait32H (SEQ ID NO: 1) were able to enhance to cytotoxic activity of these mitotic inhibitors.

Series [4] deals with p53 serine 15 phosphorylation in GMA32 cells. The series can be described thus: Western blot of p53 serine 15 phosphorylation in GMA32 cells. In kind it is cell-based, Chinese hamster. The settings on record: GMA32, Dbait with lipofectamine, no irradiation or mitotic inhibitor. The protocol: Further experiment was carried out in order to look for evidence of DNA damage signaling. The protein p53 is a well known major protein in mediating DNA damage signaling and in coordinating appropriate responses (DNA repair, apoptosis, etc.) by changing its phosphorylation status. In particular, the phosphorylation of serine 15 residue is involved in the interaction with MDM2 protein which acts as a feed back control Thus, the phosphorylation status of the serine 15 of p53 was assessed by Western blot.
For Western blot analysis, cells were lysed in Laemmli buffer. Equal amounts of lysates were resolved in 12% polyacrylamide gels. Proteins were transferred to nitrocellulose membranes, which were blocked with 5% nonfat milk (1 hour) before overnight incubation with anti-p53Ser15 antibody (9284, Cell Signaling) diluted 500 folds in TBST buffer (10 mM Tris-HCl pH7.5, 150 mM NaCl, 0.1% Tween 20) containing 5% nonfat milk. Blots were then incubated with horseradish peroxidase-conjugated goat anti-rabbit IgG secondary antibodies (P0448, Dako) diluted 1/5000 in TBST. Protein-antibody complexes were detected by enhanced chemiluminescence (RPN2106 ECL, Amersham).
A general note: Immunoblotting shows a protein as a band on a membrane.

The next series has as its target T1, Ku complex (Homo sapiens, UniProt P12956+P13010).
T1 construct: in the presence of nuclear protein extracts from Hep2 cells according to standard protocol; endogenous in cells; host or cells: Hep2 cells (nuclear protein extract)
Briefly: Band-shift assay with Hep2 nuclear protein extracts. In kind it is binding. Conditions: 10 nM 32P radio-labelled Dbait, 0-320 ng/μL Hep2 nuclear proteins, 30° C., 10 minutes. The protocol: As the first step to dissect the mechanism of action of Dbait molecules, a series of band-shift assays were carried out with different ^32P radio-labelled Dbait molecules in the presence of nuclear protein extracts from Hep2 cells according to standard protocol. Typically, 10 nM ^32P radio-labelled Dbait molecules were incubated in the presence of various concentrations of nuclear proteins (0, 10, 20, 40, 80, 160, and 320 ng/μL) at 30° C. for 10 minutes in TBE buffer. Then the samples were loaded on a 5% acrylamide native gel. The electrophoresis was run at 95V for 2 hours at 4° C. The gel was dried and scanned by phosphorimager (Molecular Dynamics).
For 32-bp Dbait molecules, the intensity of the retarded band 1 increases and then decreases as the concentration of protein increases, while the intensity of the retarded band 2 increases as a function of the concentration of nuclear protein extracts.
It is likely that band 1 has one Ku70/80 complex bound to the 16 to 32-bp Dbait, whereas the band 2 has two Ku70/80 complexes bound to the 32-bp Dbait molecules. Control experiments performed with purified Ku proteins confirmed this interpretation.

Series [5] concerns γ-H2AX foci in GMA32 cells. The series can be described thus: Immunodetection of γ-H2AX DSB foci in GMA32 cells. The settings on record: GMA32, Dbait with lipofectamine, no irradiation. The series is classed as cell-based, Chinese hamster. The protocol: Under the same conditions, the immunodetection of DSB foci of γ-H2AX phosphorylated on serine 139 by γ-H2AX labeling (bright dots or patches in nuclei) was performed in the untreated GMA32 cells, the cells transfected alone, or transfected with different Dbait molecules by lipofectamine. The counterstaining of cell membranes and nuclei were achieved by FITC-DiOC6 and DAPI. Similar effects of Dbait molecules were observed (FIG. 3.2). […] This provides visual evidence that these Dbait molecules can be used for trapping proteins involved in DSB repair via NHEJ pathway.
For immunodetection, the cells were grown on coverslip in 5 cm diameter Petri dishes 24 hours before the transfection with different Dbait molecules. One day after the transfection, FITC-DiOC6 (Molecular probes) was added in the medium 5 minutes at 37° C. (to counterstain the membranes). After 3 washing cycles, the cells were fixated with 4% PFA for 20 minutes.
After additional washing, γ-H2AX phosphorylated on serine 139 (γ-H2AX) was detected with. rabbit anti-γ-H2AX antibody (4411-PC, Trevigen) diluted 1/100 in 1×PBS, 1% BSA. Cells were washed three times with 1×PBS, 0.5%, TritonX-100, then incubated for 1 hour at room temperature with goat anti-rabbit antibodies Alexa 594 (Molecular Probes) diluted 1/100 in 1×PBS, 1% BSA. Cells were visualized by epifluorescence microscopy.

Series [6] relates to GMA32 cells. The series can be described thus: FACS analysis of sub-G1 cells (cell death) in GMA32 cells. Conditions: GMA32, 4.5 μg Dbait with lipofectamine, no irradiation or mitotic inhibitor. In kind it is cell-based, Chinese hamster. The protocol: as §1, §2
The M1 phase represents the percentage of cells in sub-G1 stage indicative of cell death.
The experiments were performed with a FACS calibur flow cytometer (Becton Dickinson). Cells were collected, suspended in 1 ml of cold GM buffer (6.5 mM glucose, 137 mM NaCl, 5.4 mM KCl, 2 mM Na2HPO4, 1 mM KHPO4, 0.5 mM EDTA), and stored at 4° C. for at least 2 hours after addition of 3 ml of cold 100% ethanol.
At that stage, cells were eventually washed with 1×PBS, then stained for 30 minutes at room temperature in PI solution (50 μg/ml propidium iodide, 25 μg/ml RNase A in 1×PBS buffer). 10,000 events were analyzed with Cellquest software, and cell aggregates were gated out. The percentage of cells with a sub-G1 content of DNA was scored.
A general note: In flow cytometry, cells or beads pass a laser one at a time.

Entries after “also recorded” stand apart in the source; their conditions may differ.

T1 sequence (P12956 whole entry): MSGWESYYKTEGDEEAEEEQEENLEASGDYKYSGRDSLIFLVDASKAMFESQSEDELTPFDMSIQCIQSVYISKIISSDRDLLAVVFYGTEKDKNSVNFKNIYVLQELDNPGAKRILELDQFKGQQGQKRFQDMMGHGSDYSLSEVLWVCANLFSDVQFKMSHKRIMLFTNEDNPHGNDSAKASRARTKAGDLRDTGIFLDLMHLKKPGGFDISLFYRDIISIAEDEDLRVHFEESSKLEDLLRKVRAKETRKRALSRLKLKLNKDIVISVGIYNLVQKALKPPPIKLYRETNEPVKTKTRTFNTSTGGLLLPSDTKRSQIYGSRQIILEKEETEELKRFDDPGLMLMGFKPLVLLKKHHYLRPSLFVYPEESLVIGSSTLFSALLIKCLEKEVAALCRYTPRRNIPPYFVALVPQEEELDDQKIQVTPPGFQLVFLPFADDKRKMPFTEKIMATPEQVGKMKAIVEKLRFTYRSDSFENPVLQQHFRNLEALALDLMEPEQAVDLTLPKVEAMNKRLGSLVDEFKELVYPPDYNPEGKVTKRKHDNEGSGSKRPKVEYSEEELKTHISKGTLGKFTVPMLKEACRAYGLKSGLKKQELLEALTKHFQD
T1 sequence (P13010 whole entry): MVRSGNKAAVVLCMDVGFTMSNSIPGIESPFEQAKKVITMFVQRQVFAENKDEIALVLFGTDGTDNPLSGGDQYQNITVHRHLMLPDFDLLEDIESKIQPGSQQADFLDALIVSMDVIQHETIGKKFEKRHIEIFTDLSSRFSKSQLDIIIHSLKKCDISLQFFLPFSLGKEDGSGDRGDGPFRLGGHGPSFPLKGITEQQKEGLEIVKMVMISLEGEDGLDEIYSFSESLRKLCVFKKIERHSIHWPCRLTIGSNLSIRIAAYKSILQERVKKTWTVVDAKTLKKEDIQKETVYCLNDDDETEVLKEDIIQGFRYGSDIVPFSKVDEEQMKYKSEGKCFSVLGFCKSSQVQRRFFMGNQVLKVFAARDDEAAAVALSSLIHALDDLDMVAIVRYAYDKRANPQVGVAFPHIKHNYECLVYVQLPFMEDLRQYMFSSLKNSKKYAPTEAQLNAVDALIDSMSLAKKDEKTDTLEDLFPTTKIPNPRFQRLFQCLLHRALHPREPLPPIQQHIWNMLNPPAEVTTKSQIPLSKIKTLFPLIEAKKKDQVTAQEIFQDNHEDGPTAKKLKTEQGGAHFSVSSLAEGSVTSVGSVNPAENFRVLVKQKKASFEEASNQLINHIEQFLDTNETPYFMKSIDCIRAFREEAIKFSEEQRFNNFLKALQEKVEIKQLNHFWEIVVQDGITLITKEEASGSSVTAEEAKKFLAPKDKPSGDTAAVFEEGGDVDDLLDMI

As to “Dbait32H-FITC: Dbait32H labelled via a T tagged with fluorescein (DNA ACGCACGGGTGTTGGGTCGTTTGTTCGGATCT; DNA, backbone not given here; fluorescein on a T, hairpin, hexaethyleneglycol loop, phosphorothioate blunt end, further chemistry not fully specified)”, in series [1], the “distribution in tumor tissues” value is reported as “heterogeneously disseminated in tumor tissues; also recorded: preferential nucleus localization”. For the same substance, in series [2], the “persistence of DSB sites (γ-H2AX foci)” value is on record as “DSB sites persisted”.

Turning to “Dbait32: 32-bp linear double-stranded Dbait molecule (SEQ ID NO: 1) (ACGCACGGGTGTTGGGTCGTTTGTTCGGATCT; DNA, backbone not given here; linear DNA duplex, phosphorothioates at blunt ends, exact count not readable, further chemistry not fully specified)”, the “chemosensitization (clonal survival)” value with GMA32 cells [3] (GMA32, 200 nM nocodazole, 100 nM navelbine (vinorelbine) or 200 nM taxol (paclitaxel)) is given as “chemosensitization was also observed”. Besides, the “radiosensitization (clonal survival)” value in the series on GMA32 cells [3] (GMA32, 4 Gy irradiation) was “radiosensitization to 4 Gy irradiation was observed”. Besides, the “phosphorylation of p53 serine 15” value in series [4] is reported as “highly phosphorylated”. Further, the “retarded bands in band-shift assay” value with Ku complex is listed as “two retarded band”. The “γ-H2AX DSB foci (cell response)” value in series [5] was “effectively trigger similar cell response as if DNA damages were occurred in nuclei”. Moreover, the “cell death (cells in sub-G1 stage)” value with GMA32 cells [6] was “Significant cell death”.

Source of the values: patent US7476729B2, “Dbait and uses thereof” (Institut Curie, priority 2003, dated 2009).
